# According to patent US20170306409A1, “CANCER PATIENT SELECTION FOR ADMINISTRATION OF WNT SIGNALING INHIBITORS USING RNF43 MUTATION STATUS” (NOVARTIS AG, priority 2012, published 2017):
# Assays:
# Assay type in all cases: cell-based, human
# Pan02.03 = assay: foci formation assay; conditions: 1 μM LGK974
# Experimental: (§1) To assay foci formation, 6,000˜12,000 cells of indicated cell lines were seeded in 6 well tissue culture plate in 2 ml growth media. After overnight culture for cell attachment, media was replaced with fresh growth media containing 1 μM LGK974 in the absence and presence of recombinant Wnt3a. For DOX-inducible β-catenin shRNA experiment, cells were treated 5 ng/ml doxycycline. When cell colonies reached desirable size, cells were fixed with 4% formalin in PBS and stained with crystal violet solution. After a few washes, plates were dried and imaged.
# (§2) Identification of pancreatic cancer lines containing inactivation mutation of RNF43. Discovery of LGK974, a potent and selective inhibitor of Porcupine, offered us a unique chemical tool to systemically examine Wnt dependency in a large panel of cancer cell lines. We tested LGK974 in a large panel of pancreatic cancer cell lines using foci formation assay. Foci formation assay was utilized because it is more sensitive than routine growth assays such as CellTiter-Glo, and it is less affected by the different growth rates of various cell lines.
# PL45 = assay: foci formation assay; conditions: 1 μM LGK974
# Experimental: as §1, §2
# PANC-1 = assay: foci formation assay; conditions: 1 μM LGK974
# Experimental: as §1, §2
# KP1-N = assay: foci formation assay; conditions: 1 μM LGK974
# Experimental: as §1, §2
# Panc04.03 = assay: foci formation assay; conditions: 1 μM LGK974
# Experimental: as §1, §2
# Capan-2 = assay: foci formation assay; conditions: 1 μM LGK974
# Experimental: as §1, §2
# YAPC = assay: foci formation assay; conditions: 1 μM LGK974
# Experimental: as §1, §2
# HuPT3 = assay: foci formation assay; conditions: 1 μM LGK974
# Experimental: as §1, §2
# PaTu-8988S = assay: foci formation assay; conditions: 1 μM LGK974
# Experimental: as §1, §2
# Panc10.05 = assay: foci formation assay; conditions: 1 μM LGK974
# Experimental: as §1, §2
# PK1 = assay: foci formation assay; conditions: 1 μM LGK974
# Experimental: as §1, §2
# L3.3 = assay: foci formation assay; conditions: 1 μM LGK974
# Experimental: as §1, §2
# KP3 = assay: foci formation assay; conditions: 1 μM LGK974
# Experimental: as §1, §2
# DanG = assay: foci formation assay; conditions: 1 μM LGK974
# Experimental: as §1, §2
# BXPC3 = assay: foci formation assay; conditions: 1 μM LGK974
# Experimental: as §1, §2
# T3M4 = assay: foci formation assay; conditions: 1 μM LGK974
# Experimental: as §1, §2
# KP4 = assay: foci formation assay; conditions: 1 μM LGK974
# Experimental: as §1, §2
# HuPT4 = assay: foci formation assay; conditions: 1 μM LGK974
# Experimental: as §1, §2
# QGP-1 = assay: foci formation assay; conditions: 1 μM LGK974
# Experimental: as §1, §2
# Hs766T = assay: foci formation assay; conditions: 1 μM LGK974
# Experimental: as §1, §2
# KP2 = assay: foci formation assay; conditions: 1 μM LGK974
# Experimental: as §1, §2
# Capan-1 = assay: foci formation assay; conditions: 1 μM LGK974
# Experimental: as §1, §2
# PSN-1 = assay: foci formation assay; conditions: 1 μM LGK974
# Experimental: as §1, §2
# Panc05.04 = assay: foci formation assay; conditions: 1 μM LGK974
# Experimental: as §1, §2
# PaTu-8988T = assay: foci formation assay; conditions: 1 μM LGK974
# Experimental: as §1, §2
# PaTu-8902 = assay: foci formation assay; conditions: 1 μM LGK974
# Experimental: as §1, §2
# Panc03.27 = assay: foci formation assay; conditions: 1 μM LGK974
# Experimental: as §1, §2
# HPAFII = assay: foci formation assay; conditions: 1 μM LGK974
# Experimental: as §1, §2
# PK59 = assay: foci formation assay; conditions: 1 μM LGK974
# Experimental: as §1, §2
# MIA CaPa-2 = assay: foci formation assay; conditions: 1 μM LGK974
# Experimental: as §1, §2
# PK45H = assay: foci formation assay; conditions: 1 μM LGK974
# Experimental: as §1, §2
# Axin2, HuPT3 = assay: Axin2 qPCR assay (pathway inhibition)
# Experimental: (§3) For reverse transcription and quantitative PCR (qPCR), total RNA was extracted from cells or tumors using the RNeasy Plus Mini Kit (Qiagen). 1 μg of RNA were reverse transcribed with Taqman Reverse Transcription Reagents (Applied Biosystems) according to the manufacturer's instruction. Quantitative PCR was performed in 12 μl reactions consisting of 0.6 μl of 20× Taqman probe and PCR primer mix, 6 μl 2× Taqman FAST Advanced Master Mix (Applied Biosystems), and 5.4 μl diluted cDNA template. The thermocycling conditions utilized were 20 seconds at 95° C., followed by 40 cycles of 1 second at 95° C. and 20 seconds at 60° C. All experiments were performed in quadruplicates. Gene expression analysis was performed using the comparative ΔΔCT method and normalized with the housekeeping gene GUSB or 18S. The Taqman probes were purchased from Applied Biosystems.
# Axin2, HuPT4 = assay: Axin2 qPCR assay (pathway inhibition)
# Experimental: as §3
# Axin2, PaTu-8902 = assay: Axin2 qPCR assay (pathway inhibition)
# Experimental: as §3
# Axin2, Capan-1 = assay: Axin2 qPCR assay (pathway inhibition)
# Experimental: as §3
# Axin2, PK1 = assay: Axin2 qPCR assay (pathway inhibition)
# Experimental: as §3
# Axin2, SW1990 = assay: Axin2 qPCR assay (pathway inhibition)
# Experimental: as §3
# Axin2, PaTu-8988S = assay: Axin2 qPCR assay (pathway inhibition)
# Experimental: as §3
compound,measurement,setting,value
"Cc1cc(-c2ncc(CC(=O)Nc3ccc(-c4cnccn4)cn3)cc2C)ccn1 [LGK974, 2-[5-methyl-6-(2-methylpyridin-4-yl)pyridin-3-yl]-N-[5-(pyrazin-2-yl)pyridin-2-yl]acetamide]",Growth inhibition in foci formation assay,Pan02.03,No
same,Growth inhibition in foci formation assay,PL45,not sensitive and No
same,Growth inhibition in foci formation assay,PANC-1,No
same,Growth inhibition in foci formation assay,KP1-N,No
same,Growth inhibition in foci formation assay,Panc04.03,No
same,Growth inhibition in foci formation assay,Capan-2,strong growth inhibitory activity and strongly inhibited and Yes
same,Growth inhibition in foci formation assay,YAPC,without significant effect and No
same,Growth inhibition in foci formation assay,HuPT3,No
same,Growth inhibition in foci formation assay,PaTu-8988S,strong growth inhibitory activity and strongly inhibited and Yes
same,Growth inhibition in foci formation assay,Panc10.05,not sensitive and No
same,Growth inhibition in foci formation assay,PK1,without significant effect and No
same,Growth inhibition in foci formation assay,L3.3,No
same,Growth inhibition in foci formation assay,KP3,No
same,Growth inhibition in foci formation assay,DanG,No
same,Growth inhibition in foci formation assay,BXPC3,No
same,Growth inhibition in foci formation assay,T3M4,No
same,Growth inhibition in foci formation assay,KP4,No
same,Growth inhibition in foci formation assay,HuPT4,No
same,Growth inhibition in foci formation assay,QGP-1,No
same,Growth inhibition in foci formation assay,Hs766T,No
same,Growth inhibition in foci formation assay,KP2,No
same,Growth inhibition in foci formation assay,Capan-1,No
same,Growth inhibition in foci formation assay,PSN-1,No
same,Growth inhibition in foci formation assay,Panc05.04,No
same,Growth inhibition in foci formation assay,PaTu-8988T,not sensitive and No
same,Growth inhibition in foci formation assay,PaTu-8902,No
same,Growth inhibition in foci formation assay,Panc03.27,No
same,Growth inhibition in foci formation assay,HPAFII,strong growth inhibitory activity and strongly inhibited and Yes
same,Growth inhibition in foci formation assay,PK59,No
same,Growth inhibition in foci formation assay,MIA CaPa-2,No
same,Growth inhibition in foci formation assay,PK45H,No
same,Pathway inhibition in Axin2 qPCR assay,"Axin2, HuPT3",Yes
same,Pathway inhibition in Axin2 qPCR assay,"Axin2, HuPT4",No
same,Pathway inhibition in Axin2 qPCR assay,"Axin2, PaTu-8902",Yes
same,Pathway inhibition in Axin2 qPCR assay,"Axin2, Capan-1",No
same,Pathway inhibition in Axin2 qPCR assay,"Axin2, PK1",Yes
same,Pathway inhibition in Axin2 qPCR assay,"Axin2, SW1990",Yes
same,Pathway inhibition in Axin2 qPCR assay,"Axin2, PaTu-8988S",Yes
